Experimental findings from ChEMBL document CHEMBL2086307, “Design, synthesis and identification of a new class of triarylmethyl amine compounds as inhibitors of apolipoprotein E production” (2012) are described below.

Activity calls are given as the source filed them. No cut-off for these calls is given here.

This assay has as its system CCF-STTG1. The assay can be described thus: Inhibition of apolipoprotein E production in human CCF-STTG1 cells at 10 uM after 24 hrs by ELISA relative to vehicle-treated control. Type of assay: functional. Particulars: for inhibition at 10 µM: CCF-STTG1, 24 h. In general terms: In an ELISA, binding on a coated surface is turned into a signal by an enzyme label.

Take `COc1ccc(C(NCC(C)C)(c2ccccc2)c2ccccc2)cc1`: the inhibition (as a rule, the percentage by which the read-out fell short of the control) was “Active”.

In the case of `CCN(CC)C(c1ccccc1)(c1ccccc1)c1ccc2ccccc2c1`, the inhibition entry is “Active”. Still for that read-out and setting: the entry for `c1ccc(C(c2ccccc2)(c2ccccc2)N2CCOCC2)cc1` is “Active”. With `c1ccc(CNC(c2ccccc2)(c2ccccc2)c2ccccc2)cc1`, the inhibition entry is “Active”. As for `CCC(C)NC(c1ccccc1)(c1ccccc1)c1ccc(OC)cc1` (stereo unspecified), the inhibition entry is “Active”.

With `c1ccc(C(c2ccccc2)(c2ccc3ccccc3c2)N2CCCC2)cc1`, the inhibition at 10 µM worked out at 46%. Take `O=C(c1ccccc1)C(O)c1ccccc1` (stereo unspecified): the inhibition entry is “Active”.

For the molecule `CCC(C)NC(c1ccccc1)(c1ccccc1)c1ccccc1` (stereo unspecified), the inhibition entry was “Active”. As for `c1ccc(C(c2ccccc2)(c2ccccc2)N2CCCC2)cc1`, the inhibition result is “Active”. Still for that read-out and setting: as for `c1ccc(C(NC2CCCCC2)(c2ccccc2)c2ccccc2)cc1`, the entry is “Active”; as for `COc1ccc(C(c2ccccc2)(c2ccccc2)N2CCNCC2)cc1`, “Active”; as for `COc1ccc(C(c2ccccc2)(c2ccccc2)N(C)C)cc1`, “Active”. In the case of `c1ccc(C(c2ccccc2)(c2ccc3ccccc3c2)N2CCOCC2)cc1`, 10 µM produced 49% inhibition. `COc1ccc(C(c2ccccc2)(c2ccccc2)N2CCCCC2)cc1`: the inhibition result was “Active”.

Turning to `O=C(c1ccccc1)c1ccccc1`, the inhibition entry is “Active”. On the same count and under the same terms, as for `COc1ccc(C(c2ccccc2)(c2ccccc2)N2CCCC2)cc1`, the entry is “Active”; as for `c1ccc(C(NC2CCCCC2)(c2ccccc2)c2ccc3ccccc3c2)cc1`, “Active”.

Turning to `COc1ccc(C(Nc2ccccc2)(c2ccccc2)c2ccccc2)cc1`, the inhibition entry was “Active”. With `O=C(c1ccccc1)c1ccc(O)cc1`, the inhibition entry is “Active”.

For `CC(NC(c1ccccc1)(c1ccccc1)c1ccc2ccccc2c1)c1ccccc1` (racemic), the inhibition result is “Active”. Consider `CCC(C)NC(c1ccccc1)(c1ccccc1)c1ccc2ccccc2c1` (stereo unspecified), for which 10 µM produced 66% inhibition. Same read-out and setting: as for `c1ccc(C(NCC2CCCCC2)(c2ccccc2)c2ccccc2)cc1`, the figure is 51%. Regarding `CC(C)CNC(c1ccccc1)(c1ccccc1)c1ccccc1`, the inhibition result was “Active”. Take `CC(C)CNC(c1ccccc1)(c1ccccc1)c1ccc2ccccc2c1`: the inhibition at 10 µM was 50%. As for `c1ccc(NC(c2ccccc2)(c2ccccc2)c2ccccc2)cc1`, the inhibition result was “Active”. On to `COc1ccc(C(c2ccccc2)(c2ccccc2)N2CCOCC2)cc1`, for which the inhibition result was “Active”. The same measure, in the same setting: as for `c1ccc(C(c2ccccc2)(c2ccccc2)N2CCNCC2)cc1`, the entry is “Active”. With `COc1ccc(C(NC2CCCCC2)(c2ccccc2)c2ccccc2)cc1`, the inhibition entry is “Active”.

Consider `CCN(CC)C(c1ccccc1)(c1ccccc1)c1ccc(OC)cc1`, for which the inhibition result was “Active”. `CN(C)C(c1ccccc1)(c1ccccc1)c1ccc2ccccc2c1`: the inhibition entry is “Active”. Same read-out and setting: the entry for `c1ccc(CN(Cc2ccccc2)C(c2ccccc2)(c2ccccc2)c2ccccc2)cc1` is “Active”; for `CCCCN(CCCC)C(c1ccccc1)(c1ccccc1)c1ccc(OC)cc1` it is “Active”; for `CCN(CC)C(c1ccccc1)(c1ccccc1)c1ccccc1` it is “Active”. Take `COc1ccc(C(NCc2ccccc2)(c2ccccc2)c2ccccc2)cc1`: the inhibition entry is “Active”. On the same count and under the same terms, as for `CCCCN(CCCC)C(c1ccccc1)(c1ccccc1)c1ccc2ccccc2c1`, the entry is “Active”; as for `CC(NC(c1ccccc1)(c1ccccc1)c1ccccc1)c1ccccc1` (racemic), “Active”. For the molecule `CN(C)C(c1ccccc1)(c1ccccc1)c1ccccc1`, the inhibition entry was “Active”.

`O=C(c1ccccc1)c1ccc(OCc2ccccc2)cc1`: the inhibition entry is “Active”. On the same count and under the same terms, as for `c1ccc(C(c2ccccc2)(c2ccccc2)N2CCCCC2)cc1`, the entry is “Active”. Same read-out and setting: as for `c1ccc(C(c2ccccc2)(c2ccc3ccccc3c2)N2CCCCC2)cc1`, the entry is “Active”. Consider `CCCCN(CCCC)C(c1ccccc1)(c1ccccc1)c1ccccc1`, for which the inhibition result was “Active”.
